US20230147257A1 (DONG-A ST CO., LTD., priority 2020, published 2023)
Like-named read-outs stand apart in the source and are kept apart here.

Tests used:
AhR [1] = target: T1, AhR (Homo sapiens, UniProt P35869); assay: In vitro assay 1: XRE-luciferase reporter assay, antagonism in human cell line (HepG2); type: cell-based; conditions: HepG2 XRE-luciferase, cells treated with kynurenine 200 μM (no *), 6 hours; read-out: Assay 1: AhR-Luc Human Antagonism (IC50)
T1 construct: host or cells: HepG2
T1 sequence (P35869 11-848): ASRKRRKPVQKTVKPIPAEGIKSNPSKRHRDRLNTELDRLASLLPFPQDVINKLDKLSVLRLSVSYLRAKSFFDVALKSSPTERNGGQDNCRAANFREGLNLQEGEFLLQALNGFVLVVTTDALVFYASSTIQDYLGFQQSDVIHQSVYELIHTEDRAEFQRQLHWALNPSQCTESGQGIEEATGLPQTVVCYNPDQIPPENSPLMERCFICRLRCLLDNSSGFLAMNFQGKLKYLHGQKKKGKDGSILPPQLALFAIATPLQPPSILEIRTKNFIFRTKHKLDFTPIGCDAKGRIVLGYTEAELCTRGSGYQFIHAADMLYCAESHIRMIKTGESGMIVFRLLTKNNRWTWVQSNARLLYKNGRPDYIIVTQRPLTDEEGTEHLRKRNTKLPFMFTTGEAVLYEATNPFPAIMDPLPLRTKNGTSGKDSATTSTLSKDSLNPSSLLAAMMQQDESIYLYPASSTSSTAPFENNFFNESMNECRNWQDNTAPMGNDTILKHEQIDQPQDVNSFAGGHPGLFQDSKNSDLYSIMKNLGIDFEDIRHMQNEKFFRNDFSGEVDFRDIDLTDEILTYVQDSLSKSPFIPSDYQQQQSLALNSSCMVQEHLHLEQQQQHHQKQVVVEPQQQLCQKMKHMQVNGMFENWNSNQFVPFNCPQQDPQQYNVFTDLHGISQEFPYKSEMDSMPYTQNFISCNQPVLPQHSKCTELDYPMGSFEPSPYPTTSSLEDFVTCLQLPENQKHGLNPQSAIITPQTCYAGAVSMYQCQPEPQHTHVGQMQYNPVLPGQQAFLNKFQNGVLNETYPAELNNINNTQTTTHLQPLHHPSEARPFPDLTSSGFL
How it was run: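 HepG2 cells carrying XRE-firefly luciferase (transient or stable) plus constitutive Nano-Luc control, stimulated 6 h with kynurenine (50 or 200 μM) with or without compound. Firefly/Nano-Luc ratio normalized to kynurenine-alone (maximum) and vehicle (minimum); IC50 by four-parameter nonlinear regression.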

AhR [2] = target: T1, AhR; assay: In vitro assay 4: endogenous AhR activity assay (CYP1A1 and CYP1B1 mRNA, qRT-PCR, HepG2 cells); type: cell-based; conditions: TCDD 10 nM with compound 123 nM, 4 hours, mRNA relative to β-actin
Procedure: In Vitro Assay 4: Endogenous AhR Activity Assay
HepG2 cells were seeded in 12-well plate (3×10^5 cells/well). A day after seeding, the cells were treated with TCDD (10 nM) alone or with compounds (123 nM) for 4 hours. Total RNA was extracted using Trizol (Thermo Fisher Scientific). cDNA synthesis and quantitative RT-PCR (qRT-PCR) assays were performed using PrimeScript™ RT Master Mix (TAKARA) and TB Green™ Premix Ex Taq™ II (TAKARA) in accordance with manufacturer's instruction. For the measurement of endogenous AhR activity, relative mRNA levels of CYP1A1 and CYP1B1 were quantitated relative to β(beta)-actin mRNA by the comparative Ct (ΔΔCt) method. The percent inhibitions were calculated according to: […]

Question: Which IC50 (AhR [1]) does the source give for `CC(CO)n1cnc2c(-c3cccnc3)nc(-c3ccc(Cl)cc3)cc2c1=O` (stereo not drawn) [Example 46, 6-(4-chlorophenyl)-3-(1-hydroxypropan-2-yl)-8-(pyridin-3-yl)pyrido[3,4-d]pyrimidin-4(3H)-one] here?
Answer: The IC50 was less than 10 nM.

Question: What about the inhibition at 0.123 µM (AhR [2]; read-out: CYP1A1 (% Inhibition)) of the same compound?
Answer: The inhibition at 0.123 µM was 90.7%.

Question: And the inhibition at 0.123 µM (AhR [2]; read-out: CYP1B1 (% Inhibition))?
Answer: Its inhibition at 0.123 µM is 99.1%.
